Some test systems named below: HCT-116; EKVX; MDA-MB-435; SF-539; HT-29; OVCAR-3; SK-OV-3; 786-0; PC-3; NCI-H460; HOP-92; HCT-15; OVCAR-4; COLO 205; A549; K562; UO-31; SF-295; MDA-N; LOX IMVI.
Assay in all cases: NCI anticancer screen, dose series, 48 h

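Cultured in 96-well plates, cells were exposed to test compound for 48 hours across five concentrations. Abbreviation: GI50, concentration required for 50% inhibition of growth.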 Active and inactive are the calls of the source. Rule as the data show it: active = GI50 up to about 1.1 µM and inactive = higher.

2 compounds from ChEMBL document CHEMBL1201862, “PubChem BioAssay data set” (2004) can be followed below.

Regarding `Nc1nc(SCC(=O)O)nc(O)c1N`, the GI50 is 35600 nM (inactive) in the experiment on HCT-116; > 100000 nM (inactive) with EKVX; 32300 nM (inactive) with MDA-MB-435; > 100000 nM (inactive) in the experiment with SF-539; > 100000 nM (inactive) in the experiment with HT-29; > 100000 nM (inactive) with OVCAR-3. Also, the GI50 in the experiment with SK-OV-3 is > 100000 nM (inactive); in the experiment with 786-0 it was 41600 nM (inactive); with PC-3 it was > 100000 nM (inactive); in the experiment with NCI-H460, > 100000 nM (inactive); in the experiment with HOP-92, > 100000 nM (inactive); in the experiment on HCT-15 it was > 100000 nM. Besides, the GI50 is 50900 nM (inactive) in the experiment with OVCAR-4; > 100000 nM (inactive) in the experiment with COLO 205; > 100000 nM (inactive) in the experiment with A549; 13600 nM (inactive) in the experiment with K562; > 100000 nM (inactive) with UO-31; > 100000 nM (inactive) in the experiment on SF-295. In addition, the GI50 with MDA-N is 33200 nM (inactive); in the experiment with LOX IMVI, 20900 nM (inactive).

Consider `CO[C@@H]1C[C@H](OC(N)=O)[C@@H]2C=C[C@@H]3/C=C(C)/C=C/[C@@H](C)[C@H](/C(C)=C/[C@@H](C)NC(C)=O)OC(=O)/C=C/C=C(C)\C=C\[C@]3(C)[C@@H]2C1` [SUPERSTOLIDE B], for which the GI50 in the experiment with HCT-116 is < 5 nM (active); in the experiment on EKVX, 98.6 nM (active); with MDA-MB-435, < 5 nM (active); in the experiment with SF-539, < 5 nM (active); in the experiment with HT-29, < 5 nM (active); with OVCAR-3 it was < 5 nM (active). Besides, the GI50 was < 5 nM (active) with SK-OV-3; < 5 nM (active) in the experiment with 786-0; < 5 nM (active) in the experiment on PC-3; < 5 nM (active) in the experiment on NCI-H460; < 5 nM (active) in the experiment on HOP-92; 5.18 nM in the experiment with HCT-15. In addition, the GI50 in the experiment with OVCAR-4, in the experiment with COLO 205, in the experiment on A549, with K562, in the experiment on UO-31 and with SF-295 was < 5 nM (active) in each case. Besides, the GI50 in the experiment with MDA-N and with LOX IMVI was < 5 nM (active) each time.
